Laboratory results: PubChem BioAssay AID977613 (Broad Institute, 2014)
Calls of active or inactive are those of the source. The rule behind the calls is not given here.

The compounds below were run on Broad 7084-01 inhibitor HTS, set 2 (assay: inhibitors in Broad screen 7084-01, set 2 (AID 977613);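 note: host cells are infected with parasite promastigotes that become internalized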).
`O=C(CC1CC1)N1CC(=O)N2[C@H](CO)[C@H](c3ccc(/C=C/c4ccccc4)cc3)[C@@H]2C1` was tested, and the active concentration was > 10 µM (inactive). With `O=C(Nc1ccccc1F)N1CC(=O)N2[C@H](CO)[C@@H](c3ccc(-c4cccnc4)cc3)[C@@H]2C1` the active concentration was > 10 µM (inactive). For `Cc1ccc(S(=O)(=O)N2CC[C@@H]3[C@H]2c2cc(C#Cc4ccc(F)cc4)ccc2N[C@@H]3CO)cc1`, the active concentration was > 10 µM (inactive). In the case of `O=C(C[C@@H]1CC[C@@H]2[C@H](COC[C@H](O)CN2C(=O)c2ccccc2F)O1)NCc1ccccc1`, the active concentration is reported as > 10 µM (inactive). With `O=C(C[C@@H]1CC[C@H]2[C@@H](COC[C@@H](O)CN2CC2CC2)O1)NCC1CC1` the active concentration was > 10 µM (inactive). With `O=C(CC(F)(F)F)N1C[C@@H]2[C@H](c3ccccc31)[C@H](CO)N2C(=O)C1CC1` the active concentration was > 10 µM (inactive). In the case of `O=C(NC1CCCCC1)N1CC(=O)N2[C@H](C1)[C@H](c1ccc(-c3ccncc3)cc1)[C@@H]2CO`, the active concentration is reported as > 10 µM (inactive). With `Cc1ccccc1S(=O)(=O)N1CCCCN2[C@H](C1)[C@H](c1ccc(C#CCN(C)C)cc1)[C@@H]2CO` the active concentration was > 10 µM (inactive). For `C/C=C/c1ccc([C@H]2[C@@H](CO)N3C(=O)CN(S(=O)(=O)c4ccccc4)C[C@@H]23)cc1`, the active concentration was > 10 µM (inactive). For `O=C(Nc1cccc(F)c1)N1C[C@@H]2[C@H](c3ccccc31)[C@@H](CO)N2C(=O)Cc1ccccn1`, the active concentration was > 10 µM (inactive). With `O=C(C[C@H]1CC[C@@H]2[C@H](COC[C@@H](O)CN2C(=O)c2ccncc2)O1)NCc1ccc(-c2ccccc2)cc1` the active concentration was > 10 µM (inactive). With `C/C=C/c1ccc([C@H]2[C@H]3CN(S(=O)(=O)c4ccccc4)CC(=O)N3[C@H]2CO)cc1` the active concentration was > 10 µM (inactive). For `N#C[C@@H]1[C@H](c2ccccc2-c2ccccc2)[C@@H](CO)N1C(=O)Cc1ccncc1`, the active concentration was > 10 µM (inactive). For `CC(C)C#Cc1ccc([C@H]2[C@H](CO)N3C(=O)CN(C(=O)Cc4ccccc4)C[C@@H]23)cc1`, the active concentration was > 10 µM (inactive). With `COc1cccc(-c2ccc3c(c2)[C@H]2[C@H](CCN2S(=O)(=O)c2ccccc2C)[C@H](CO)N3)c1` the active concentration was > 10 µM (inactive). `CCCNC(=O)N1[C@H](CO)[C@@H](c2ccccc2-c2ccccc2F)[C@@H]1C#N` was tested, and the active concentration was > 10 µM (inactive). `O=C(C1CCOCC1)N1CC(=O)N2[C@@H](CO)[C@H](c3ccc(C#CCc4ccccc4)cc3)[C@@H]2C1` was tested, and the active concentration was > 10 µM (inactive). `CN1CCN(C(=O)C[C@@H]2CC[C@H]3[C@@H](COC[C@@H](O)CN3C(=O)C3CC3)O2)CC1` was tested, and the active concentration was > 10 µM (inactive). With `COc1ccc(NC(=O)N2CCCCN3[C@H](C2)[C@H](c2ccc(-c4ccccc4F)cc2)[C@@H]3CO)cc1` the active concentration was > 10 µM (inactive). In the case of `CCCNC(=O)N1CC(=O)N2[C@H](C1)[C@H](c1ccc(C#CCC3CCCC3)cc1)[C@@H]2CO`, the active concentration is reported as > 10 µM (inactive). For `CN1C[C@@H](O)COC[C@@H]2O[C@@H](CC(=O)NC3CCCC3)CC[C@H]21`, the active concentration was > 10 µM (inactive). In the case of `COc1ccccc1S(=O)(=O)N1CC[C@H]2[C@H](CO)Nc3ccc(-c4ccc(C#N)cc4)cc3[C@H]21`, the active concentration is reported as > 10 µM (inactive). `C/C=C/c1ccc([C@H]2[C@H](CO)N(S(=O)(=O)Cc3ccccc3)C23CN(C(=O)C2CCCC2)C3)cc1` was tested, and the active concentration was > 10 µM (inactive). For `Cc1ccccc1-c1ccccc1[C@H]1[C@@H](C#N)N(C(=O)c2cccc(F)c2)[C@H]1CO`, the active concentration was > 10 µM (inactive). `Cc1ccccc1-c1ccccc1[C@@H]1[C@@H](C#N)N(C(=O)c2cccc(F)c2)[C@H]1CO` was tested, and the active concentration was > 10 µM (inactive). For `CCCC#Cc1ccc([C@@H]2[C@@H](CO)N3CCCCN(CCC)C[C@@H]23)cc1`, the active concentration was > 10 µM (inactive). With `CC(C)NC(=O)N1C[C@@H]2[C@H](c3ccccc31)[C@@H](CO)N2Cc1ccccn1` the active concentration was less than 10 µM. In the case of `C[C@@H](O)C#Cc1ccc([C@@H]2[C@@H](CO)N3CCCCN(C(=O)c4ccc5c(c4)OCO5)C[C@H]23)cc1`, the active concentration is reported as > 10 µM (inactive). In the case of `O=C(C[C@@H]1CC[C@@H]2[C@H](COC[C@H](O)CN2C(=O)c2ccccc2)O1)Nc1ccc(-c2ccccc2)cc1`, the active concentration is reported as > 10 µM (inactive). In the case of `CS(=O)(=O)N1C[C@@H](O)COC[C@@H]2O[C@H](CC(=O)NCc3ccc(-c4ccccc4)cc3)CC[C@H]21`, the active concentration is reported as > 10 µM (inactive). `CN(C)C(=O)[C@@H]1[C@@H](CO)[C@@H]2Cn3c(cccc3=O)[C@@H]2N1C(=O)C1CCC1` was tested, and the active concentration was > 10 µM (inactive). With `O=C(Nc1ccccc1)N1CC(=O)N2[C@@H](CO)[C@H](c3ccc(C#CC4CCCCC4)cc3)[C@@H]2C1` the active concentration was > 10 µM (inactive). For `COc1cccc(CN2[C@H](CO)[C@@H](c3ccccc3)C23CN(Cc2ccccc2OC)C3)c1`, the active concentration was > 10 µM (inactive). `COc1ccccc1CNC(=O)C[C@@H]1CC[C@@H]2[C@H](COC[C@H](O)CN2C(=O)Nc2ccccc2)O1` was tested, and the active concentration was > 10 µM (inactive). In the case of `O=C(C[C@@H]1CC[C@H]2[C@@H](COC[C@H](O)CN2C(=O)c2ccncc2)O1)NCc1ccc(-c2ccccc2)cc1`, the active concentration is reported as > 10 µM (inactive). For `O=C(CN1CCOCC1)N1CC(=O)N2[C@H](CO)[C@@H](c3ccc(-c4cccc(F)c4)cc3)[C@@H]2C1`, the active concentration was > 10 µM (inactive). For `CN1c2ccc(-c3ccccc3F)cc2[C@@H]2[C@@H](CCN2C(=O)Cc2ccccn2)[C@@H]1CO`, the active concentration was > 10 µM (inactive). For `COc1ccc2c3c([nH]c2c1)[C@@H](CO)N(Cc1ccccc1F)CC31CN(CC2CC2)C1`, the active concentration was > 10 µM (inactive). In the case of `O=C(C[C@H]1CC[C@@H]2[C@H](COC[C@H](O)CN2CCC(F)(F)F)O1)NCC1CC1`, the active concentration is reported as > 10 µM (inactive). `Cc1cccc(S(=O)(=O)N2C[C@H](O)COC[C@@H]3O[C@@H](CC(=O)Nc4ccccc4)CC[C@H]32)c1` was tested, and the active concentration was > 10 µM (inactive). In the case of `O=C(c1ccccc1)N1[C@H](CO)[C@H](c2ccccc2)C12CN(Cc1nccs1)C2`, the active concentration is reported as > 10 µM (inactive). For `N#C[C@H]1[C@H](c2ccccc2-c2ccccc2F)[C@H](CO)N1C(=O)C1CCC1`, the active concentration was > 10 µM (inactive). In the case of `COc1ccc2c3c([nH]c2c1)[C@H](CO)N(C(=O)C1CCCCC1)CC31CCN(C)CC1`, the active concentration is reported as > 10 µM (inactive). With `CCCNC(=O)N1[C@H](CO)[C@@H](c2ccccc2C2=CCCCC2)[C@@H]1C#N` the active concentration was > 10 µM (inactive). In the case of `CCCC#Cc1ccc([C@H]2[C@H]3CN(C(=O)c4cccnc4)CC(=O)N3[C@H]2CO)cc1`, the active concentration is reported as > 10 µM (inactive). For `C/C=C/c1ccccc1[C@@H]1[C@@H](C#N)N(C(C)=O)[C@@H]1CO`, the active concentration was > 10 µM (inactive). In the case of `CN1C(=O)c2cc(NC(=O)c3cccc(F)c3)ccc2OC[C@H]2O[C@@H](CC(=O)NCC3CCCCC3)CC[C@@H]21`, the active concentration is reported as > 10 µM (inactive). `O=C(c1cnccn1)N1CC(=O)N2[C@H](CO)[C@H](c3ccc(C#CC4CC4)cc3)[C@@H]2C1` was tested, and the active concentration was > 10 µM (inactive). `O=C(Nc1cccc(Cl)c1)N1C[C@@H]2[C@H](c3ccccc31)[C@@H](CO)N2CC1CCOCC1` was tested, and the active concentration was > 10 µM (inactive). For `CN1c2ccc(Br)cc2[C@H]2[C@H](CCN2S(=O)(=O)c2cccc(F)c2)[C@@H]1CO`, the active concentration was > 10 µM (inactive). For `CN(C)C(=O)C[C@@H]1CC[C@H]2[C@@H](COC[C@@H](O)CN2CC2CC2)O1`, the active concentration was > 10 µM (inactive). `CN(C)C(=O)c1cccc(-c2ccc([C@H]3[C@H](CO)N4CCCCN(CC5CCOCC5)C[C@@H]34)cc2)c1` was tested, and the active concentration was > 10 µM (inactive). With `N#C[C@@H]1[C@@H](c2ccccc2C2=CCCCC2)[C@@H](CO)N1S(=O)(=O)c1cccc(F)c1` the active concentration was > 10 µM (inactive). With `O=C(C1CCCCC1)N1C[C@H]2[C@@H](c3ccccc31)[C@H](CO)N2C(=O)Cc1ccccn1` the active concentration was > 10 µM (inactive). `O=C(C1CCOCC1)N1CC(=O)N2[C@H](CO)[C@H](c3ccc(C#CCc4ccccc4)cc3)[C@@H]2C1` was tested, and the active concentration was > 10 µM (inactive). In the case of `O=C(C[C@@H]1CC[C@H]2[C@@H](COC[C@@H](O)CN2C(=O)c2cccnc2)O1)NCc1ccccc1`, the active concentration is reported as > 10 µM (inactive). For `N#C[C@@H]1[C@@H](c2ccccc2-c2ccc(F)cc2)[C@H](CO)N1C(=O)Cc1cccnc1`, the active concentration was > 10 µM (inactive). In the case of `COc1cccc(NC(=O)N2C[C@@H](O)COC[C@H]3O[C@@H](CC(=O)NC4CCC4)CC[C@@H]32)c1`, the active concentration is reported as > 10 µM (inactive). For `O=C(Nc1ccc(F)cc1)N1CC(=O)N2[C@H](C1)[C@H](c1ccc(C#Cc3cccnc3)cc1)[C@@H]2CO`, the active concentration was > 10 µM (inactive). With `O=C(c1cnccn1)N1CC[C@@H]2[C@H]1c1cc(-c3ccccc3F)ccc1N[C@@H]2CO` the active concentration was > 10 µM (inactive). `CCCNC(=O)N1CC2(C1)[C@@H](c1ccccc1)[C@@H](CO)N2Cc1ccccn1` was tested, and the active concentration was > 10 µM (inactive). With `O=C(C[C@@H]1CC[C@H]2[C@@H](COC[C@H](O)CN2S(=O)(=O)c2ccccc2)O1)Nc1ccccc1` the active concentration was > 10 µM (inactive). With `OC[C@@H]1[C@@H]2c3ccccc3NC[C@@H]2N1CC1CCOCC1` the active concentration was > 10 µM (inactive). In the case of `O=S(=O)(c1ccccc1)N1CCCCN2[C@H](CO)[C@H](c3ccc(C#CC4CCCC4)cc3)[C@@H]2C1`, the active concentration is reported as > 10 µM (inactive). With `COc1cccc(NC(=O)Nc2ccc3c(c2)C(=O)N(C)[C@H]2CC[C@H](CC(=O)NCCc4ccccc4)O[C@@H]2CO3)c1` the active concentration was > 10 µM (inactive). In the case of `N#C[C@H]1[C@@H](c2ccccc2-c2cccc(F)c2)[C@@H](CO)N1C(=O)CN1CCOCC1`, the active concentration is reported as > 10 µM (inactive). With `O=C(c1cccc(F)c1)N1C[C@@H]2[C@H](c3ccccc31)[C@@H](CO)N2C(=O)C1CCOCC1` the active concentration was > 10 µM (inactive). In the case of `O=C(C[C@@H]1CC[C@@H]2[C@H](COC[C@H](O)CN2C(=O)Nc2cc(Cl)cc(Cl)c2)O1)NCC1CCCCC1`, the active concentration is reported as > 10 µM (inactive). With `O=C(Nc1cccc(F)c1)N1CCCCN2[C@H](C1)[C@@H](c1ccc(C#Cc3cccnc3)cc1)[C@@H]2CO` the active concentration was > 10 µM (inactive). `CN1C(=O)c2cc(NS(C)(=O)=O)ccc2OC[C@H]2O[C@H](CC(=O)N3CCOCC3)CC[C@@H]21` was tested, and the active concentration was > 10 µM (inactive). `CCCC#Cc1ccc([C@@H]2[C@H](CO)N3C(=O)CN(S(=O)(=O)c4ccccc4C)C[C@@H]23)cc1` was tested, and the active concentration was > 10 µM (inactive).
